Data published in US3939266A, “Substituted sulfonylacetamido cephalosporins” (SmithKline Corporation, priority 1974, dated 1976).
≈ marks a conversion by molar mass, not a printed value. Where two headings read alike, the source gives them in different places.

Experiments:
Type in all cases: cell-based
[1] = system: Kleb. pneumo. SK 1200; assay: MIC against Kleb. pneumo. SK 1200
[2] = system: E. coli SK 12140; assay: MIC against E. coli SK 12140; settings: Escherichia coli, SK12140
[3] = system: Pseudo. sp. HH 63; assay: MIC against Pseudo. sp. HH 63
[4] = system: Strep. pyog. C 203; assay: MIC against Strep. pyog. C 203
[5] = system: Kleb. pneumo. SK 4200; assay: MIC against Kleb. pneumo. SK 4200
[6] = system: S. aureus SK 23390; assay: MIC against S. aureus SK 23390; settings: Staphylococcus aureus, SK23390
[7] = system: Entero. aerog. ATCH 13048; assay: MIC against Entero. aerog. ATCH 13048
[8] = system: Salmonella ATCC 12176; assay: MIC against Salmonella ATCC 12176; settings: ATCC12176
[9] = system: Entero. cloaca PaSL 969; assay: MIC against Entero. cloaca PaSL 969
[10] = system: E. coli HH 33779; assay: MIC against E. coli HH 33779; settings: Escherichia coli, HH33779
[11] = system: S. aureus HH 127; assay: MIC against S. aureus HH 127; settings: Staphylococcus aureus, HH127
[12] = system: Shigella HH 112; assay: MIC against Shigella HH 112; settings: HH112
[13] = system: Strep. faecalis HH 34358; assay: MIC against Strep. faecalis HH 34358; settings: Enterococcus faecalis, HH34358
[14] = system: Serra. marc. ATCC 13880; assay: MIC against Serra. marc. ATCC 13880
[15] = system: S. villaluz; assay: MIC against S. villaluz
[16] = E. coli SK 12140, read-out: MIC
[17] = Salmonella ATCC 12176, read-out: MIC

Compound	MIC [1]	MIC [2, 16]	MIC [3]	MIC [4]	MIC [5]	MIC [6]	MIC [7]	MIC [8, 17]	MIC [9]	MIC [10]	MIC [11]	MIC ([12]; Shigella HH 112, read-out: MIC)	MIC [13]	MIC [2]	MIC [14]	MIC [15]	MIC ([8]; Salmonella)	MIC ([12]; Shigella)
CC(=O)OCC1=C(C(=O)O)N2C(=O)C(NC(=O)CS(C)(=O)=O)C2SC1 (centres unmarked) [Compound 54293, 7-Methylsulfonylacetamidocephalosporanic acid]	12.5 µg/mL (≈ 31.9 µM)	12.5 µg/mL (≈ 31.9 µM)	> 200 µg/mL	0.4 µg/mL (≈ 1.02 µM)	12.5 µg/mL (≈ 31.9 µM)	1.6 µg/mL (≈ 4.08 µM)	> 200 µg/mL	12.5 µg/mL (≈ 31.9 µM)	> 200 µg/mL	25 µg/mL (≈ 63.7 µM)	3.1 µg/mL (≈ 7.9 µM)	25 µg/mL (≈ 63.7 µM)	200 µg/mL (≈ 510 µM)					
Cc1nnc(SCC2=C(C(=O)O)N3C(=O)C(NC(=O)CS(C)(=O)=O)[C@H]3SC2)s1 (some centres unmarked) [Compound 55848, 7-Methylsulfonylacetamido-3-(2-methyl-1,3,4-thiadiazol-5-ylthiomethyl)-3-cephem-4-carboxylic acid]	6.3 µg/mL (≈ 13.6 µM)		> 200 µg/mL	0.2 µg/mL (≈ 0.431 µM)	3.1 µg/mL (≈ 6.67 µM)	1.6 µg/mL (≈ 3.44 µM)	> 200 µg/mL	3.1 µg/mL (≈ 6.67 µM)	> 200 µg/mL	25 µg/mL (≈ 53.8 µM)	1.6 µg/mL (≈ 3.44 µM)	12.5 µg/mL (≈ 26.9 µM)	50 µg/mL (≈ 108 µM)	12.5 µg/mL (≈ 26.9 µM)				
Cn1nnnc1SCC1=C(C(=O)O)N2C(=O)C(NC(=O)CS(C)(=O)=O)[C@H]2SC1 (some centres unmarked) [Compound 57286, 7-Methylsulfonylacetamido-3-(1-methyltetrazol-5-ylthiomethyl)-3-cephem-4-carboxylic acid]	3.1 µg/mL (≈ 6.91 µM)	3.1 µg/mL (≈ 6.91 µM)	> 200 µg/mL	0.2 µg/mL (≈ 0.446 µM)	1.6 µg/mL (≈ 3.57 µM)	1.6 µg/mL (≈ 3.57 µM)	> 200 µg/mL	3.1 µg/mL (≈ 6.91 µM)	> 200 µg/mL	12.5 µg/mL (≈ 27.9 µM)	3.1 µg/mL (≈ 6.91 µM)	3.1 µg/mL (≈ 6.91 µM)	100 µg/mL (≈ 223 µM)		> 200 µg/mL			
CC(=O)OCC1=C(C(=O)O)N2C(=O)C(NC(=O)CS(=O)(=O)c3ccccc3)C2SC1 (centres unmarked) [Compound 57359, 7-Phenylsulfonylacetamidocephalosporanic acid]	6.3 µg/mL (≈ 13.9 µM)	50 µg/mL (≈ 110 µM)	> 200 µg/mL	0.2 µg/mL (≈ 0.44 µM)	12.5 µg/mL (≈ 27.5 µM)	0.8 µg/mL (≈ 1.76 µM)	> 200 µg/mL	12.5 µg/mL (≈ 27.5 µM)	> 200 µg/mL	100 µg/mL (≈ 220 µM)	1.6 µg/mL (≈ 3.52 µM)	25 µg/mL (≈ 55 µM)	50 µg/mL (≈ 110 µM)		> 200 µg/mL			
Cc1nnc(SCC2=C(C(=O)O)N3C(=O)C(NC(=O)CS(=O)(=O)c4ccccc4)[C@H]3SC2)s1 (some centres unmarked) [Compound 57360, 7-Phenylsulfonylacetamido-3-(2-methyl-1,3,4-thiadiazol-5-ylthiomethyl)-3-cephem-4-carboxylic acid]	12.5 µg/mL (≈ 23.7 µM)	25 µg/mL (≈ 47.5 µM)	> 200 µg/mL	0.1 µg/mL (≈ 0.19 µM)	25 µg/mL (≈ 47.5 µM)	0.4 µg/mL (≈ 0.76 µM)	> 200 µg/mL	25 µg/mL (≈ 47.5 µM)	> 200 µg/mL	100 µg/mL (≈ 190 µM)	0.8 µg/mL (≈ 1.52 µM)	25 µg/mL (≈ 47.5 µM)	25 µg/mL (≈ 47.5 µM)		> 200 µg/mL			
CS(=O)(=O)CC(=O)NC1C(=O)N2C(C(=O)[O-])=C(C[n+]3ccccc3)CSC12 (centres unmarked) [Compound 59345, 7-Methylsulfonylacetamido-3-(1-pyridiniummethyl)-3-cephem-4-carboxylic acid]	100 µg/mL (≈ 243 µM)	100 µg/mL (≈ 243 µM)	> 200 µg/mL	0.1 µg/mL (≈ 0.243 µM)	50 µg/mL (≈ 122 µM)	0.8 µg/mL (≈ 1.94 µM)	> 200 µg/mL	50 µg/mL (≈ 122 µM)	> 200 µg/mL	100 µg/mL (≈ 243 µM)	0.8 µg/mL (≈ 1.94 µM)	50 µg/mL (≈ 122 µM)	100 µg/mL (≈ 243 µM)		> 200 µg/mL	25 µg/mL (≈ 60.8 µM)		
CC(=O)OCC1=C(C(=O)O)N2C(=O)C(NC(=O)CS(N)(=O)=O)C2SC1 (centres unmarked) [Compound 59393, 7-Aminosulfonylacetamidocephalosporanic acid]	25 µg/mL (≈ 63.5 µM)	50 µg/mL (≈ 127 µM)	> 200 µg/mL	0.1 µg/mL (≈ 0.254 µM)	25 µg/mL (≈ 63.5 µM)	1.6 µg/mL (≈ 4.07 µM)	200 µg/mL (≈ 508 µM)	12.5 µg/mL (≈ 31.8 µM)	100 µg/mL (≈ 254 µM)	50 µg/mL (≈ 127 µM)	1.6 µg/mL (≈ 4.07 µM)	25 µg/mL (≈ 63.5 µM)	50 µg/mL (≈ 127 µM)		> 200 µg/mL			
CC1=C(C(=O)O)N2C(=O)C(NC(=O)CS(C)(=O)=O)[C@H]2SC1 (some centres unmarked) [Compound 59454, 7-Methylsulfonylacetamido-3-methyl-3-cephem-4-carboxylic acid]	> 200 µg/mL	> 200 µg/mL	> 200 µg/mL	0.4 µg/mL (≈ 1.2 µM)	> 200 µg/mL	25 µg/mL (≈ 74.8 µM)	> 200 µg/mL	> 200 µg/mL	> 200 µg/mL	> 200 µg/mL	25 µg/mL (≈ 74.8 µM)	> 200 µg/mL	> 200 µg/mL		> 200 µg/mL	> 200 µg/mL		
Cc1nc(SCC2=C(C(=O)O)N3C(=O)C(NC(=O)CS(C)(=O)=O)C3SC2)n[nH]1 (centres unmarked) [Compound 59586]	3.1 µg/mL (≈ 6.93 µM)	6.3 µg/mL (≈ 14.1 µM)	> 200 µg/mL	0.2 µg/mL (≈ 0.447 µM)	3.1 µg/mL (≈ 6.93 µM)	0.8 µg/mL (≈ 1.79 µM)	200 µg/mL (≈ 447 µM)	1.6 µg/mL (≈ 3.58 µM)	> 200 µg/mL	25 µg/mL (≈ 55.9 µM)	1.6 µg/mL (≈ 3.58 µM)	12.5 µg/mL (≈ 27.9 µM)	100 µg/mL (≈ 223 µM)		> 200 µg/mL	100 µg/mL (≈ 223 µM)		
CCS(=O)(=O)CC(=O)NC1C(=O)N2C(C(=O)O)=C(COC(C)=O)CSC12 (centres unmarked) [Compound 59623, 7-Ethylsulfonylacetamidocephalosporanic acid]	6.3 µg/mL (≈ 15.5 µM)	25 µg/mL (≈ 61.5 µM)	> 200 µg/mL	0.1 µg/mL (≈ 0.246 µM)	6.3 µg/mL (≈ 15.5 µM)	0.8 µg/mL (≈ 1.97 µM)	200 µg/mL (≈ 492 µM)	3.1 µg/mL (≈ 7.63 µM)		50 µg/mL (≈ 123 µM)	0.8 µg/mL (≈ 1.97 µM)	25 µg/mL (≈ 61.5 µM)	100 µg/mL (≈ 246 µM)		> 200 µg/mL	100 µg/mL (≈ 246 µM)		
CCS(=O)(=O)CC(=O)NC1C(=O)N2C(C(=O)O)=C(CSc3nnc(C)s3)CSC12 (centres unmarked) [Compound 59641, 7-Ethyldulfonylacetamido-3-(2-methyl-1,3,5-thiadiazol-5-yl-thiomethyl)-3-cephem-4-carboxylic acid]	1.6 µg/mL (≈ 3.34 µM)	3.1 µg/mL (≈ 6.48 µM)	> 200 µg/mL	0.1 µg/mL (≈ 0.209 µM)	1.6 µg/mL (≈ 3.34 µM)	0.4 µg/mL (≈ 0.836 µM)	100 µg/mL (≈ 209 µM)	1.6 µg/mL (≈ 3.34 µM)		12.5 µg/mL (≈ 26.1 µM)	0.4 µg/mL (≈ 0.836 µM)	6.3 µg/mL (≈ 13.2 µM)	25 µg/mL (≈ 52.2 µM)		> 200 µg/mL			
Cn1cnnc1SCC1=C(C(=O)O)N2C(=O)C(NC(=O)CS(C)(=O)=O)C2SC1 (centres unmarked) [Compound 59758]	6.3 µg/mL (≈ 14.1 µM)	6.3 µg/mL (≈ 14.1 µM)	> 200 µg/mL	0.1 µg/mL (≈ 0.223 µM)	6.3 µg/mL (≈ 14.1 µM)	1.6 µg/mL (≈ 3.58 µM)	> 200 µg/mL			12.5 µg/mL (≈ 27.9 µM)	3.1 µg/mL (≈ 6.93 µM)		200 µg/mL (≈ 447 µM)		> 200 µg/mL	50 µg/mL (≈ 112 µM)	3.1 µg/mL (≈ 6.93 µM)	0.1 µg/mL (≈ 0.223 µM)
Cn1c(SCC2=C(C(=O)O)N3C(=O)C(NC(=O)CS(C)(=O)=O)C3SC2)n[nH]c1=O (centres unmarked) [Compound 59857]	6.3 µg/mL (≈ 13.6 µM)	25 µg/mL (≈ 53.9 µM)	> 200 µg/mL	0.2 µg/mL (≈ 0.431 µM)	6.3 µg/mL (≈ 13.6 µM)	1.6 µg/mL (≈ 3.45 µM)	> 200 µg/mL	3.1 µg/mL (≈ 6.69 µM)		50 µg/mL (≈ 108 µM)	1.6 µg/mL (≈ 3.45 µM)	25 µg/mL (≈ 53.9 µM)	100 µg/mL (≈ 216 µM)		> 200 µg/mL	25 µg/mL (≈ 53.9 µM)		
